Source: US20200031848A1, “AR-V7 INHIBITORS” (Hoffmann-La Roche Inc., priority 2016, published 2020)

Experiments:
[1] = biological target: T1, AR transcriptional activity (Homo sapiens, UniProt P10275, T878A); assay: eGFP cellular AR transcription assay; format: cell-based; conditions: for inhibition at 1 µM: read-out: eGFP % inhib. at 1 μM
T1 construct: The LNCaP eGFP cell line was stably transfected with an androgen-responsive probasin-derived promoter fused to an eGFP reporter; endogenous in cells; host or cells: LNCaP eGFP (LN-ARR2PB-eGFP) human prostate cancer cells
T1 sequence (P10275 1-920 T878A): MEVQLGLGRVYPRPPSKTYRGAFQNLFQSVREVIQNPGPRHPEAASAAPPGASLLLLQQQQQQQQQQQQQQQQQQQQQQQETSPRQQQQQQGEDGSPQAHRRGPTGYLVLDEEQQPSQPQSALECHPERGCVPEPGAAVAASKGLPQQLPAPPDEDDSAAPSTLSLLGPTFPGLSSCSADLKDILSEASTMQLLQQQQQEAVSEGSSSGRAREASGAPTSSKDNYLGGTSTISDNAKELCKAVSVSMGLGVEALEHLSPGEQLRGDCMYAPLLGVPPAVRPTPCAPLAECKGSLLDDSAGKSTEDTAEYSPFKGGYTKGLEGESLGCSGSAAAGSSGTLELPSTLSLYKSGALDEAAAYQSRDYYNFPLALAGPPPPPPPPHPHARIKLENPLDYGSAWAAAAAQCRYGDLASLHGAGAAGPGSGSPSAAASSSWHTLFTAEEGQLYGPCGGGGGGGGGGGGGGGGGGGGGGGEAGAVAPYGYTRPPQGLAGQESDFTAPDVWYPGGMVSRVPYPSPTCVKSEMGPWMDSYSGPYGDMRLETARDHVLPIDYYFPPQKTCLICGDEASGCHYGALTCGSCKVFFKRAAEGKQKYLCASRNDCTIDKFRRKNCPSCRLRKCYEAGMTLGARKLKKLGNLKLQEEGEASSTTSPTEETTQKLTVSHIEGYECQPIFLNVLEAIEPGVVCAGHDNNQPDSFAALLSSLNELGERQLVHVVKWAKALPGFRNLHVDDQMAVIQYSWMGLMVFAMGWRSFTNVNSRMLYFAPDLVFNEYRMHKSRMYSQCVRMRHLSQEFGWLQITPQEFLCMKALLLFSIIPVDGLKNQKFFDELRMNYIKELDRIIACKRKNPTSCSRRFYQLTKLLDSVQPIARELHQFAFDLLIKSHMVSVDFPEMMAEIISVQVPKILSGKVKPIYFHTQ
Source text: The DNA-binding domain is an attractive target for inhibition of AR dimerization and/or DNA binding. In silico computational drug discovery methods were used to conduct a virtual screen of >3 million purchasable lead-like compounds from the ZINC database (Irwin, J. et al.^11) to identify potential DBD binders. The in silico methods included large-scale docking, in-site rescoring and consensus voting procedures. It will be understood by a person of skill that COOH and NR2 may include the corresponding ions, for example carboxylate ions and ammonium ions, respectively. Alternatively, where the ions are shown, a person of skill in the art will appreciate that the counter ion may also be present. Furthermore, it will be appreciated by a person of skill that other moieties may include the corresponding ions, and where the ions are shown, a person of skill in the art will appreciate that the counter ion may also be present. […] Where the % inhibition, eGFP IC50 or the PSA IC50 has no value given, this may be because no measurement was taken or the value was not calculated, in the case of the % inhibition. In vitro identification of AR inhibitors targeting AR DBD The selected compounds were assessed with a non-destructive eGFP assay that quantifies levels of AR transcriptional activity, were identified (table below).
(§1) 1. Cell Culture: LNCaP and PC3 human prostate cancer cells were obtained from American Type Culture Collection (ATCC, Manassas, Va.) and grown in RPMI 1640 medium supplemented with 5% fetal bovine serum (FBS) (Invitrogen). The LNCaP eGFP cell line was stably transfected with an androgen-responsive probasin-derived promoter fused to an eGFP reporter (LN-ARR2PB-eGFP) using a lentiviral approach, and were grown in phenol-red-free RPMI 1640 supplemented with 5% CSS. In-house developed MDV3100-resistant LNCaP cells were cultured in RPMI 1640 supplemented with 5% FBS and 10 μM MDV3100. All cells were maintained at 37° C. in 5% CO2.
2. eGFP cellular AR transcription assay: The AR transcriptional activity was assayed as previously described (Tavassoli, P., et al.^12).

[2] = system: PSA levels secreted into the media; assay: Prostate-specific antigen (PSA) assay; format: cell-based; conditions: Homo sapiens, 72 h; in parallel to the eGFP assay, same plates, 3 days
Method: as §1
3. Prostate-specific antigen (PSA) assay: The evaluation of PSA levels secreted into the media was performed in parallel to the eGFP assay using the same plates. After cells were incubated for 3 days, 150 μl of the media was taken from each well, and added to 150 μl of PBS. PSA levels were then evaluated using Cobas e 411 analyzer instrument (Roche Diagnostics) according to the manufacturer's instructions.

in vitro = conditions: for microsomal CLint at 2 μM: pH 7.4
Method: Microsomal incubations were carried out in 96-well plates in 5 aliquots of 40 μL each (one for each time point). […] Control incubations were performed replacing the NADPH-cofactor system with PBS. […] Incubations were performed in duplicates. Five time points over 40 minutes had been analyzed. The reactions were stopped by adding 12 volumes of 90% acetonitrile-water to incubation aliquots, followed by protein sedimentation by centrifuging at 5500 rpm for 5 minutes. Supernatants were analyzed using the HPLC system coupled with tandem mass spectrometer. The elimination constant (kel), half-life (t1/2) and intrinsic clearance (Clint) were determined in plot of […] versus time, using linear regression analysis: […]

Row | SMILES | IC50 ([1]; LNCaP eGFP cell line) | IC50 [2] | microsomal CLint at 2 μM (in vitro; human, microsomes) | inhibition at 1 µM [1] | further results
1 | Brc1ncn(-c2csc(N3C[C@H]4CC[C@@H](C3)O4)n2)c1Br [Example 3, (1R,5S)-3-[4-(4,5-dibromoimidazol-1-yl)thiazol-2-yl]-8-oxa-3-azabicyclo[3.2.1]octane] | 182 nM | 1060 nM | – | – | –
2 | CC1(C)CN(c2nc(-n3cc(Br)nc3Br)cs2)CCO1 [Example 1, 4-[4-(2,4-dibromoimidazol-1-yl)thiazol-2-yl]-2,2-dimethyl-morpholine] | 117 nM | 95 nM | – | – | –
3 | Brc1ncn(-c2csc(N3[C@@H]4CC[C@H]3COC4)n2)c1Br [Example 7, (1R,5S)-8-[4-(4,5-dibromoimidazol-1-yl)thiazol-2-yl]-3-oxa-8-azabicyclo[3.2.1]octane] | 458 nM | 385 nM | – | – | –
4 | Brc1ncn(-c2csc(N3[C@@H]4CCC[C@H]3COC4)n2)c1Br [Example 4, (1S,5R)-9-[4-(4,5-dibromoimidazol-1-yl)thiazol-2-yl]-3-oxa-9-azabicyclo[3.3.1]nonane] | 196 nM | 6 nM | – | – | –
5 | OCc1nc(Br)c(Br)n1-c1csc(N2CCOCC2)n1 [Example 57, [4,5-dibromo-1-(2-morpholinothiazol-4-yl)imidazol-2-yl]methanol] | 6450 nM | – | 10 µL/min/mg | – | metabolic stability in human hepatic microsomal test system (in words) (in vitro; human, microsomes): high metabolic stability
6 | Clc1ncn(-c2csc(N3[C@@H]4CCC[C@H]3COC4)n2)c1Br [Example 5, (1R,5S)-9-[4-(5-bromo-4-chloro-imidazol-1-yl)thiazol-2-yl]-3-oxa-9-azabicyclo[3.3.1]nonane] | 268 nM | 181 nM | – | – | –
7 | CCC1(CC)CN(c2nc(-n3cc(Br)nc3Br)cs2)CCO1 [Example 37, 4-[4-(2,4-dibromoimidazol-1-yl)thiazol-2-yl]-2,2-diethyl-morpholine] | – | – | 129 µL/min/mg | 33% | –
8 | Cc1nc(-c2ccccc2)cn1-c1csc(N2CCOCC2)n1 [Example 60, 4-[4-(2-methyl-4-phenyl-imidazol-1-yl)thiazol-2-yl]morpholine] | – | – | 44 µL/min/mg | 3% | –
9 | c1cn(-c2csc(N3CCOCC3)n2)cn1 [Example 55, 4-(4-imidazol-1-ylthiazol-2-yl)morpholine] | – | – | 10 µL/min/mg | 17% | metabolic stability in human hepatic microsomal test system (in words) (in vitro; human, microsomes): high metabolic stability
10 | Cc1c(Br)ncn1-c1csc(N2CCOCC2)n1 [Example 53, 4-[4-(4-bromo-5-methyl-imidazol-1-yl)thiazol-2-yl]morpholine] | – | – | 72 µL/min/mg | 44% | –
11 | Clc1ncn(-c2csc(N3C[C@H]4CC[C@@H](C3)O4)n2)c1Cl [Example 20, (1S,5R)-3-[4-(4,5-dichloroimidazol-1-yl)thiazol-2-yl]-8-oxa-3-azabicyclo[3.2.1]octane] | 250 nM | – | 40 µL/min/mg | – | –
12 | CCC1COCCN1c1nc(-n2cc(Br)nc2Br)cs1 (stereo not shown) [Example 15, 4-[4-(2,4-dibromoimidazol-1-yl)thiazol-2-yl]-3-ethyl-morpholine] | 130 nM | – | 51 µL/min/mg | – | –
13 | Brc1cn(-c2csc(N3CCOC4(CCCC4)C3)n2)c(Br)n1 [Example 18, 9-[4-(2,4-dibromoimidazol-1-yl)thiazol-2-yl]-6-oxa-9-azaspiro[4.5]decane] | 200 nM | – | 100 µL/min/mg | – | "No cofactor" control: role of CYP450 in metabolism (in vitro; NADPH-cofactor system replaced with PBS): not determined just by CYP450 activity; metabolic stability in human hepatic microsomal test system (in words) (in vitro; human hepatic microsomes): low stability
14 | Clc1c(Br)ncn1-c1csc(N2[C@@H]3CC[C@H]2COC3)n1 [Example 8, (1R,5S)-8-[4-(4-bromo-5-chloro-imidazol-1-yl)thiazol-2-yl]-3-oxa-8-azabicyclo[3.2.1]octane] | 717 nM | 717 nM | – | – | –
15 | OCc1c(Br)ncn1-c1csc(N2CCOCC2)n1 [Example 61, [5-bromo-3-(2-morpholinothiazol-4-yl)imidazol-4-yl]methanol] | – | – | 15 µL/min/mg | 31% | metabolic stability in human hepatic microsomal test system (in words) (in vitro; human, microsomes): high metabolic stability
16 | Clc1c(Br)ncn1-c1csc(N2C[C@H]3CC[C@@H](C2)O3)n1 [Example 24, (1R,5S)-3-[4-(4-bromo-5-chloro-imidazol-1-yl)thiazol-2-yl]-8-oxa-3-azabicyclo[3.2.1]octane] | 700 nM | – | 13 µL/min/mg | – | metabolic stability in human hepatic microsomal test system (in words) (in vitro; human, microsomes): high metabolic stability
17 | OCc1ncn(-c2csc(N3CCOCC3)n2)c1Br [Example 62, [5-bromo-1-(2-morpholinothiazol-4-yl)imidazol-4-yl]methanol] | – | – | 19 µL/min/mg | – | eGFP IC50 ([1]; LNCaP eGFP cell line): inact.
18 | Brc1nccn1-c1csc(N2CCOCC2)n1 [Example 59, 4-[4-(2-bromoimidazol-1-yl)thiazol-2-yl]morpholine] | – | – | 42 µL/min/mg | 35% | –
19 | Clc1ncn(-c2csc(N3[C@@H]4CC[C@H]3COC4)n2)c1Br [Example 6, (1R,5S)-8-[4-(5-bromo-4-chloro-imidazol-1-yl)thiazol-2-yl]-3-oxa-8-azabicyclo[3.2.1]octane] | 404 nM | 377 nM | – | – | –
20 | Brc1cn(-c2csc(N3CCOC4(COC4)C3)n2)c(Br)n1 [Example 39, 8-[4-(2,4-dibromoimidazol-1-yl)thiazol-2-yl]-2,5-dioxa-8-azaspiro[3.5]nonane] | – | – | 18 µL/min/mg | 34% | –
21 | CCOC(=O)c1nc(Br)c(Br)n1-c1csc(N2CCOCC2)n1 [Example 56, ethyl 4,5-dibromo-1-(2-morpholinothiazol-4-yl)imidazole-2-carboxylate] | – | – | 33 µL/min/mg | 12% | –
22 | Clc1ncn(-c2csc(N3[C@@H]4CC[C@H]3COC4)n2)c1Cl [Example 19, (1R,5S)-8-[4-(4,5-dichloroimidazol-1-yl)thiazol-2-yl]-3-oxa-8-azabicyclo[3.2.1]octane] | 320 nM | – | 42 µL/min/mg | – | –
23 | CC1CN(c2nc(-n3cc(Br)nc3Br)cs2)C(C)CO1 (stereo not shown) [Example 17, 4-[4-(2,4-dibromoimidazol-1-yl)thiazol-2-yl]-2,5-dimethyl-morpholine] | 190 nM | – | 41 µL/min/mg | – | –
